The values below come from publication PMC10673369, “Preliminary SAR of Novel Pleuromutilin–Polyamine Conjugates” (Microorganisms, 2023).

A value given as a limit tells only on which side of the number the result lay.

Series [1] concerns human red blood cells. Description: Hemolytic assay. The format is cell-based. The conditions noted are these: mean (n = 2). The method, then:
Hemolysis assays were conducted using reported protocols (see Supplementary File). […]
Human whole blood was washed three times with three volumes of 0.9% NaCl and then resuspended in the same solution to a concentration of 0.5 x 10^8 cells/mL, as determined by the manual cell count in a Neubauer hemocytometer. The washed cells were then added to the 384-well compound-containing plates for a final volume of 50 µL. After a 10 min shake on a plate shaker, the plates were then incubated for 1 h at 37 °C. After incubation, the plates were centrifuged at 1,000g for 10 min to pellet cells and debris; 25 µL of the supernatant was then transferred to a polystyrene 384-well assay plate. Hemolysis was determined by measuring the supernatant absorbance at […] (OD405). The absorbance was measured using a Tecan M1000 Pro monochromator plate reader. HC10 and HC50 (concentration at 10% and 50% hemolysis, respectively) were calculated by curve fitting the inhibition values vs. log (concentration) using a sigmoidal dose–response function with variable fitting values for the top, bottom, and slope. […]

Series [2] is described as follows: Cytotoxicity assay, HEK293. The format is cell-based. Conditions: human; HEK293 cells; mean (n = 2); read-out: Cytotoxicity (IC50), concentration of compound at 50% cytotoxicity. As to the method: Cytotoxicity assays were conducted using reported protocols (see Supplementary File). […]
HEK293 cells were counted manually in a Neubauer hemocytometer and plated at a density of 5,000 cells/well into each well of the 384-well plates containing the 25x (2 µL) concentrated compounds [26,27]. The medium used was Dulbecco's modified Eagle’s medium (DMEM), supplemented with 10% fetal bovine serum (FBS). Cells were incubated together with the compounds for 20 h at 37 °C, 5% CO2.
To measure cytotoxicity, 5 µL (equals 100 µM final) of resazurin was added to each well after incubation and incubated for further 3 h at 37 °C with 5% CO2. After the final incubation, fluorescence intensity […]
reader. CC50 values (concentration at 50% cytotoxicity) were calculated by normalizing the fluorescence readout, with 74 µg/mL tamoxifen as negative control (0%) and normal cell growth as positive control (100%). The concentration-dependent percentage cytotoxicity was fitted to a dose–response function (using Pipeline Pilot) and CC50 values were determined. […]

Series [3] relates to MRSA ATCC 43300. Description: MIC, CO-ADD broth microdilution, MRSA. In kind it is cell-based, methicillin-resistant S. aureus. Conditions: Staphylococcus aureus; MRSA ATCC 43300; mean (n = 2); read-out: MIC MRSA. The method, then:
(§1) The susceptibility of bacterial strains S. aureus (ATCC 25923), E. coli (ATCC 25922), and P. aeruginosa (ATCC 27853 or PAO1) to antibiotics and compounds was determined using reported protocols. Additional antimicrobial evaluation against MRSA (ATCC 43300), Klebsiella pneumoniae (ATCC 700603), A. baumannii (ATCC 19606), Candida albicans (ATCC 90028), and Cryptococcus neoformans (ATCC 208821) was undertaken at the Community for Open Antimicrobial Drug Discovery at The University of Queensland (Australia) according to their standard protocols as reported previously. […]
(§2) 2.3. Antimicrobial Assays
(§3) The susceptibility of bacterial strains S. aureus (ATCC 25923), E. coli (ATCC 25922), and P. […]
(§4) baumannii (ATCC 19606), Candida albicans (ATCC 90028), and Cryptococcus neoformans (ATCC 208821) was undertaken at the Community for Open Antimicrobial Drug Discovery at The University of Queensland (Australia) according to their standard protocols as reported previously. For antimicrobial assays, the tested strains were cultured in either Luria broth (LB) (In Vitro Technologies, USB75852), nutrient broth (NB) (Becton Dickson, 234000), or MHB at 37 °C overnight. A sample of culture was then diluted 40-fold in fresh MHB and incubated at 37 °C for 1.5−2 h. The compounds were serially diluted 2-fold across the wells of 96-well plates (Corning 3641, non-binding surface), with compound concentrations ranging from 0.015 to 64 µg/ mL, and plated in duplicate. The resultant mid-log phase cultures were diluted to the final concentration of 1 × 10^6 CFU/mL; then, 50 µL was added to each well of the compound-containing plates, giving a final compound concentration range of 0.008 to 32 µg/mL and a cell density of 5 × 10^5 CFU/mL. All plates were then covered and incubated at 37 °C for 18 h. Resazurin was added at 0.001% final concentration to each well and incubated for 2 h before MICs […]
(§5) For C. neoformans, resazurin was added at 0.006% final concentration to each well and incubated for a further 3 h before MICs were determined by measuring […]
(§6) Colistin and vancomycin were used as positive bacterial inhibitor standards for Gram-negative and Gram-positive bacteria, respectively. Fluconazole was used as a positive fungal inhibitor standard for C. albicans and C. neoformans. The antibiotics were provided in […], with 3 above and 3 below its MIC value, and plated into the first 8 wells of column 23 of the 384-well NBS plates. The quality control (QC) of the assays was determined by the antimicrobial controls and the Z'-factor (using positive and negative controls). Each plate was deemed to fulfil the quality criteria (pass QC) if the Z'- […]
(§7) inhibition at their highest concentration, and no growth inhibition at their lowest concentration.
(§8) 2.4. Determination of the MICs of Antibiotics in the Presence of Synergizing Compounds
(In general: Broth dilution looks for growth in wells or tubes with falling amounts of substance.)

Series [4] concerns K. pneumoniae ATCC 700603. The experiment in a line: MIC, CO-ADD broth microdilution, K. pneumoniae. The format is cell-based, Klebsiella pneumoniae. The conditions noted are these: Klebsiella pneumoniae, ATCC700603, mean (n = 2). The method, then: as §1, §2, §3, §4, §5, §6, §7, §8
Series [5] has as its system S. aureus ATCC 25923. The experiment in a line: MIC, broth dilution, S. aureus. The format is cell-based. The conditions noted are these: Staphylococcus aureus, ATCC25923, mean (n = 3). As to the method: as §1, §2
The susceptibility of bacterial strains S. aureus (ATCC 25923), E. coli (ATCC 25922), and P. aeruginosa (ATCC 27853 or PAO1) to antibiotics and compounds was determined in microplates using the standard broth dilution method in accordance with the recommendations of the Comité de l’AntibioGramme de la Société Française de Microbiologie (CA-SFM). Briefly, the minimal inhibitory concentrations (MICs) were determined with an inoculum of 10^5 CFU in 200 µL of Mueller–Hinton broth (MHB) containing two-fold serial dilutions of each drug. The MIC was defined as the lowest […]
determine all MICs, the measurements were independently repeated in triplicate. Additional antimicrobial evaluation against MRSA (ATCC 43300), Klebsiella pneumoniae (ATCC 700603), A. baumannii (ATCC 19606), Candida albicans (ATCC 90028), and Cryptococcus neoformans (ATCC 208821) was undertaken at the Community for Open Antimicrobial Drug Discovery at The University of Queensland (Australia) according to their standard protocols as reported previously. […]
as §5, §6, §7, §8

Take `C=C[C@]1(C)C[C@@H](OC(=O)CNCCCNCCCCCCCCCCCCNCCCNCC(=O)O[C@@H]2C[C@@](C)(C=C)[C@@H](O)[C@H](C)[C@]34CCC(=O)[C@H]3[C@@]2(C)[C@H](C)CC4)[C@]2(C)[C@H](C)CC[C@]3(CCC(=O)[C@H]32)[C@@H](C)[C@@H]1O.O=C(O)C(F)(F)F.O=C(O)C(F)(F)F.O=C(O)C(F)(F)F.O=C(O)C(F)(F)F` [Compound 9f, N^1,N^1′-(Dodecane-1,12-diyl)bis(N^3-(2-(((3aR,4R,5R,7S,8S,9R,9aS,12R)-8-hydroxy-4,7,9,12-tetramethyl-3-oxo-7-vinyldecahydro-4,9a-propanocyclopenta [8]annulen-5-yl)oxy)-2-oxoethyl)propane-1,3-diaminium) 2,2,2-trifluoroacetate]: the “Hemolysis (HC10), concentration of compound at 10% hemolytic activity” value in series [1] was 13.2 µM. In addition, the IC50 at 20 h in series [2] came out at 8.3 µM. In addition, the MIC in series [3] was not above 0.17 µM; in series [4], 21.5 µM; in series [5] it was 2.1 µM.

In general, MIC refers to the lowest concentration found to suppress growth.
